Experimental findings from patent publication US20080248511A1, “METHODS TO QUENCH LIGHT FROM OPTICAL REACTIONS” (priority 2007, published 2008) are described below.

Like-named read-outs stand apart in the source and are kept apart here.

In test [1] the target is T1, firefly luciferase (Photinus pyralis, UniProt P08659). The test can be described thus: Quaternary ammonium/phosphonium detergent screen, firefly luciferase (Example 5). The format is biochemical. Conditions: final conc. 0.03% detergent; Tergitol NP-9 present; read-out: Retained Firefly Luciferase Luminescence (%).
Test [2] concerns the target T1, firefly luciferase. Put plainly: biochemical. Conditions: 0.5% detergent in Luciferase Assay Reagent; read-out: Retained Firefly Luciferase Luminescence (%). As to the method:
The retained luminescence for each luciferase was calculated by dividing the luminescence in the presence of the detergent by the luminescence in the absence of the test detergent. The selectivity value for each of the test detergents was determined by dividing the retained firefly luciferase luminescence by the retained Renilla luciferase luminescence.
A set of detergents (Table 2; Sigma-Aldrich) was added at 0.5% (from a 5% or 10% stock solution) to either Luciferase Assay Reagent (Promega) or Renilla Luciferase Assay Reagent (Promega) and allowed to equilibrate at room temperature.
The firefly luciferase and Renilla luciferase enzymes were diluted as follows. Firefly luciferase was diluted to 14 ng/ml in Phosphate Buffered Saline (PBS) containing 0.1% of the protein carrier Prionex® (Pentapharm). Renilla luciferase was diluted to 10 ng/ml in 1× Renilla Luciferase Lysis Buffer (Promega) containing 0.1% Prionex®. The Renilla Luciferase Lysis Buffer […] detergent micelles when using the Renilla Luciferase Assay Reagent. In the absence of other detergents, this prevents sequestering of coelenterazine which inhibits Renilla luciferase-mediated luminescence.
The luciferase reactions were initiated by adding 40 μl of either the firefly or Renilla luciferase enzyme solution to 200 μl of the appropriate reagent solution (firefly luciferase enzyme solution+firefly luciferase reagent solution or Renilla luciferase enzyme solution+Renilla luciferase reagent solution, respectively). The reactions were performed in an opaque white, 96-well plate and luminescence was measured for 0.5 seconds per well using a Turner BioSystems Veritas™ Microplate luminometer. The retained firefly luciferase and Renilla luciferase luminescence, as well as the selectivity values for each detergent, were calculated (Table 2).

In test [3] the target is T2, Renilla luciferase (Renilla reniformis, UniProt P27652).
T2 sequence (P27652 1-311): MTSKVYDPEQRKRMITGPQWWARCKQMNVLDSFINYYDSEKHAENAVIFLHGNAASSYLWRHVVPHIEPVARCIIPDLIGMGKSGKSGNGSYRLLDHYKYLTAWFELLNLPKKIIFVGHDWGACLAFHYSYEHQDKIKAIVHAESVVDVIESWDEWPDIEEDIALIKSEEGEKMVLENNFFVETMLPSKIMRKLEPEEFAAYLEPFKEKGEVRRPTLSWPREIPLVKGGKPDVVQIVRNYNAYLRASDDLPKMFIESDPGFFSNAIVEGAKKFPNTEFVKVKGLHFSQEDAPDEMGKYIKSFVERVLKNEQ
Put plainly: biochemical. The format is biochemical.

Test [4] deals with T1, firefly luciferase. The test can be described thus: Detergent titration with Tergitol NP-9, digitonin or no lysing agent, firefly luciferase (Example 4). The class given is biochemical. The following applies: read-out: Relative Firefly Luc Intensity; for remaining activity at 0.0005 %: 0.0005% detergent; for remaining activity at 0.005 %: 0.0050% detergent; for remaining activity at 0.05 %: 0.0500% detergent.

For test [5], the target named is T2, Renilla luciferase. The test can be described thus: Detergent screen with Tergitol NP-9, Renilla luciferase (Example 3). The class given is biochemical. As to the method: (§1) Unless otherwise specified, materials were obtained from Sigma-Aldrich.
(§2) The firefly luciferase and Renilla luciferase enzymes were diluted as follows. Firefly luciferase was diluted to 14 ng/ml in Delbecco's Minimal Essential (DMEM) medium (Gibco/Invitrogen) containing 0.1% Prionex®. Renilla luciferase was diluted to 10 ng/ml in DMEM medium containing 0.1% Prionex®.
(§3) The luciferase reactions were initiated by adding 50 μl of the firefly luciferase or Renilla luciferase enzyme solution to 50 μl of reagent solution. The reactions were performed as described above. The retained firefly luciferase and Renilla luciferase luminescence as well as the selectivity values for each quencher were calculated (Table 3). The values listed are based on 0.06% quencher in the reagent solution.

Test [6] has as its target T2, Renilla luciferase. Put plainly: Quaternary ammonium/phosphonium detergent screen, Renilla luciferase (Example 5). The following applies: final conc. 0.10% detergent. The class given is biochemical. As to the method:
(§4) Each detergent was added at 0.2% to a reagent solution containing 50 mM Tricine pH 8.3, 3.5 mM MgSO4, 1 mM CDTA, 30 mM thiourea and 0.5% Tergitol NP-9. This solution or one not containing a detergent inhibitor was used to resuspend the Bright-Glo™ luciferin substrate (Promega).
(§5) The luciferase reactions were initiated by adding 100 μl of the firefly luciferase or Renilla luciferase enzyme solutions to 100 μl of reagent solution. The reactions were performed as described above. […] The detergent concentrations listed refer to the final concentration in the reaction.

Test [7] has as its target T1, firefly luciferase. Put plainly: Detergent screen with Tergitol NP-9, firefly luciferase (Example 3). The class given is biochemical. Conditions: 0.06% quencher in reagent solution; 0.5% Tergitol NP-9. As to the method:
as §1, §2, §3

The target of test [8] is T1, firefly luciferase. The test can be described thus: Quaternary ammonium/phosphonium detergent screen, firefly luciferase (Example 5). The class given is biochemical. Conditions: final conc. 0.10% detergent; Tergitol NP-9 present; read-out: Retained Firefly Luciferase Luminescence (%). As for the experimental part:
as §4, §5

In test [9] the target is T2, Renilla luciferase. The test can be described thus: Quaternary ammonium/phosphonium detergent screen, Renilla luciferase (Example 5). The class given is biochemical. Conditions: final conc. 0.03% detergent.
[10] abbreviates: Tergitol NP-9 present, read-out: Retained Renilla Luciferase Luminescence (%).

T1 sequence (P08659 whole entry): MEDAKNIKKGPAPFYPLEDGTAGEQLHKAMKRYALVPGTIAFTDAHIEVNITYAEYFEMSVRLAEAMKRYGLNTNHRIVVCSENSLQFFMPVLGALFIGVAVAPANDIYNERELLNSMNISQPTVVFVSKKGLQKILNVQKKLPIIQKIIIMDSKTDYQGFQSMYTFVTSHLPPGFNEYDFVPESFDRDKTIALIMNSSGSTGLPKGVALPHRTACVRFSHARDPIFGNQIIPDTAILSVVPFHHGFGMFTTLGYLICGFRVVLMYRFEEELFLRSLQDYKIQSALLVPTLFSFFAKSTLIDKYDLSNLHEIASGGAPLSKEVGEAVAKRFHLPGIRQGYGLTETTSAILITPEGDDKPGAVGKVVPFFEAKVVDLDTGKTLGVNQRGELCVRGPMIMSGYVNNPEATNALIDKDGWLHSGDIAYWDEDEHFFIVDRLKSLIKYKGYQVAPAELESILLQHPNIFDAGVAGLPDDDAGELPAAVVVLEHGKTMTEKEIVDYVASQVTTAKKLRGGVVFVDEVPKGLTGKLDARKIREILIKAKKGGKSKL

On to `CCCCCCCCCCCC[N+](C)(C)Cc1ccccc1.[Br-]` [Benzyldimethyldodecylammonium bromide], for which the remaining activity at 0.03 % in [1] came to 100%; in [9] (setting [10]), 25%. For the same compound, the remaining activity at 0.5 % turned out to be 20.7% in test [2] and 0.08% in test [3] (0.5% detergent in Renilla Luciferase Assay Reagent, read-out: Retained Renilla Luciferase Luminescence (%)). The “Selectivity Value” in [3] (retained firefly / retained Renilla, 0.5% detergent) is given as 259.9; in test [5] (retained firefly / retained Renilla, 0.06% quencher, 0.5% Tergitol NP-9), 5.4; in test [6], 48.5; in test [9] it was 4. Besides, the remaining activity at 0.0005 % in test [4] (Dig) was determined as 111%; in [4] (Terg) it was 96%; in test [4] (Water) it was 116%. The remaining activity at 0.005 % in test [4] (Dig) turned out to be 139%; in test [4] (Terg), 101%; in test [4] (Water) it was 155%. Moreover, the remaining activity at 0.05 % in test [4] (Dig (20 μg/ml digitonin)) came out at 37%; in [4] (Terg (0.5% Tergitol NP-9)) it was 50%; in test [4] (Water (no lysing agent)), 79%. Further, the “Retained Renilla Luminescence (%)” value in test [5] (0.06% quencher in reagent solution, 0.5% Tergitol NP-9) is 22%. Also, the “lowering of selectivity value relative to the screen without Tergitol NP-9” value in test [5] (Tergitol NP-9 in the reagent solution) was “about 50 fold”. For the same compound, the remaining activity at 0.1 % in test [6] (setting [10]) was found to be 2%; in test [8] it was 97%. In addition, the “Retained Firefly Luminescence (%)” value in test [7] is recorded as 119%.
